Experimental data: paper PMC5339268, “Ganoderic Acid A Metabolites and Their Metabolic Kinetics” (Frontiers in Pharmacology, 2017)
Where two headings read alike, the source gives them in different places. Each block holds one compound with its values, some of them ahead of it.

Experiments:
CYP3A [1] = experiment: Effect of CYP inhibitors on formation of GAA metabolites in RLMs; assay type: in vitro ADME; details: rat, rat liver microsomes (RLMs), probe GAA (10 μM), formation of metabolite M2, RLMs 0.25 mg/ml, ketoconazole 10 μM
Procedure: (§1) GAA (10 μM) was incubated with 0.25 mg/ml RLMs or HLMs in the incubation system as described in Section Formation Kinetics of the Metabolites M2 and M4, in the present or absent of the following CYP enzymes inhibitors, 10 μM α- naphthoflavone (for CYP1A2), 100 μM ticlopidine (for CYP2C19), 10 μM quinidine (for CYP2D), 10 μM ketoconazole (for CYP3A), 100 μM fluconazole (for CYP2C9) and 100 μM diethyldithiocarbamate (for CYP2E1), respectively. The M2 and M4 formation rates in the present and absent of inhibitors were compared. The percentage of inhibition was calculated. Each of the incubations was performed in triplicate.

CYP3A [2] = experiment: Effect of CYP inhibitors on formation of GAA metabolites in HLMs; assay type: in vitro ADME; details: human, human liver microsomes (HLMs), probe GAA (10 μM), ketoconazole 10 μM
Procedure: as §1

EL4 syngeneic mice = system: EL4 syngeneic mice; set-up: method as in Radwan et al., 2015; details: ref Radwan et al., 2015, cited from earlier work
[3] = system: rat liver microsomes (RLMs); experiment: In vitro metabolite identification, GAA incubated with RLMs; details: for Detected resource 4, RLMs: 100 μM GAA, 1.0 mg protein/ml RLMs, NADPH and UDPGA, 37°C, 1 h
Procedure: (§2) For in vitro metabolites identification, the enzyme incubation was performed in a medium containing 1.0 mg protein /ml RLMs or HLMs, 100 μM of GAA, 3.3 mM of MgCl2, 3.0 mM of NADPH, 3.0 mM of UDPGA and 100 mM of sodium phosphate buffer (pH 7.4). The total volume was 500 μl. The metabolism reaction was initiated by adding NADPH and UDPGA after 10 min preincubation at 37°C. The reaction was maintained at 37°C for 1 h and terminated by adding with 500 μl of ice-cold acetonitrile. The mixture was centrifuged at 20,000 g for 15 min, and 10 μl of the supernatant was directly injected for HPLC-DAD-MS/MS assay. Control samples were prepared as described above by using inactivated enzymes in the incubation system. Each of the incubations was performed in duplicate.
(§3) The identification of metabolites were conducted by a HPLC-DAD-MS/MS system equipped with an Agilent 1,260 HPLC system (Agilent Technologies, Santa Clara, CA, USA), 1,260 diode array detector (DAD) and 4,500 Q-Trap mass spectrometer with electrospray ionization source (AB SCIEX, Framingham, MA, USA). Chromatographic separation was performed on a C18 column (100 × 4.6 mm, 2.4 μm, BDS hypersil, Thermo, PA) maintained at 40°C. The mobile phase consisted of acetonitrile (A) and 0.1% formic acid aqueous solution (B) with following gradient elution at a flow rate of 0.40 ml/min: 0–10 min, 20–35% A; 10–20 min, 35% A; 20–25 min, 35–65% A; 25–30 min, 65% A; 30–35 min, 65–20% A; and 35–45 min, 20% A. The DAD spectral data was collected from 190 to 400 nm. The injection volume of all the tested samples was 10 μl. Mass data were acquired in negative mode under the following conditions, ion spray voltage −4,500 V, ion source temperature 450°C, curtain gas 10 psi, nebulizer gas 60 psi and auxiliary gas 60 psi. Data were collected using Analyst 1.6.2 (Applied Biosystems) in both first quadrupole (Q1) mass scan mode and multiple reaction monitoring (MRM) independent data acquisition (IDA) mode using enhanced product ion scans (EPI) and enhanced resolution (ER) in the ion trap mode.

HepG2 cells = system: HepG2 cells; set-up: method as in Yao et al., 2012; details: ref Yao et al., 2012; cited from earlier work
[4] = system: human liver microsomes (HLMs); experiment: In vitro metabolite identification, GAA incubated with HLMs; details: for Detected resource 5, HLMs: 100 μM GAA, 1.0 mg protein/ml HLMs, NADPH and UDPGA, 37°C, 1 h
Procedure: as §2, §3

[5] = GAA metabolite identification in rat bile, plasma and urine after intravenous administration (HPLC-DAD-MS/MS); details: for Detected resource 1, rat bile: rat bile 0–4 h after i.v. GAA 20 mg/kg; for Detected resource 2, rat plasma: rat plasma 5 and 30 min after i.v. GAA 20 mg/kg; for Detected resource 3, rat urine: rat urine 0–4 h after i.v. GAA 20 mg/kg
Procedure: Male Sprague-Dawley rats (200 ± 20 g) were supplied by Beijing Vital Laboratory Animal Technology (Beijing, China). The animal experiment was approved by the Animal Ethics Committee at the Institute of Medicinal Plant Development, Chinese Academy of Medical Sciences. […] On the day before the experiment, the rats were suffered with light surgeries. Under anesthesia by an intraperitoneal dose of 10% chloral hydrate at 3.50 ml/kg, a polyethylene catheter (0.50 mm ID, 1.00 mm OD, Portex Limited, Hythe, Kent, England) was cannulated into the right jugular vein for intravenous drug administration and blood collection, and another catheter (0.28 mm ID, 0.61 mm OD, Portex Limited, Hythe, Kent, England) was cannulated into the bile fistul for bile collection. After surgery, the rats were placed individually in metabolism cages and allowed to recover for at least 24 h. The rats were fasted over night with free access to water prior to drug administration.
GAA (25 mg) was dissolved in 500 μl of physiological saline containing 2% sodium carbonate and diluted with physiological saline to make the volume of 5 ml (Cheng C.-R. et al., [2013]). The solution was given to rats (n = 5) intravenously at 20 mg/kg through the jugular vein catheter. After dosing and blood sample collection, 0.2 ml of normal saline with 20 units of heparin was injected into the body through the catheter to flush the catheter and prevent blood coagulation.
Rats were held in metabolism cages, blood was collected into heparinized tubes from the jugular vein before (blank) and at 5 and 30 min post dosing, and then centrifuged at 1,500 g for 10 min for plasma separation. At the same time, bile and urine samples were collected before (blank) and over the period of 0–4 h post dosing. All of the collected blank plasma, blank bile, blank urine, dosing plasma, dosing bile or dosing urine from five rats were pooled together respectively and stored at −20°C until assay.
For plasma, an aliquot of 200 μl sample was mixed with 20 μl HCl solution (1 M), and then extracted with 1.5 ml of ethyl acetate by vortex-mixing for 10 min. The ethyl acetate layer was collected and concentrated to dryness by a vacuum concentrator. The residue was reconstituted in 100 μl 80% methanol and centrifuged at 20,000 g for 15 min. The supernatant was collected for HPLC-DAD-MS/MS assay. For bile, an aliquot of 150 μl sample was mixed with 150 μl 80% methanol and 10 μl 5% formic acid, and then centrifuged at 20,000 g for 15 min. The supernatant was collected for HPLC-DAD-MS/MS assay. For urine, an aliquot of 2 ml sample was loaded on a pretreated ODS-C18 cartridge (Agilent AccuBOND, 500 mg). After washing with 5 ml of water, the cartridge was eluted with 10 ml of methanol. The methanol eluate was collected and concentrated to dryness by a vacuum concentrator at 37°C. The residue was reconstituted in 200 μl 80% methanol and centrifuged at 20,000 g for 15 min, and the supernatant was collected for HPLC-DAD-MS/MS assay.
The identification of metabolites were conducted by a HPLC-DAD-MS/MS system equipped with an Agilent 1,260 HPLC system (Agilent Technologies, Santa Clara, CA, USA), 1,260 diode array detector (DAD) and 4,500 Q-Trap mass spectrometer with electrospray ionization source (AB SCIEX, Framingham, MA, USA). Chromatographic separation was performed on a C18 column (100 × 4.6 mm, 2.4 μm, BDS hypersil, Thermo, PA) maintained at 40°C. The mobile phase consisted of acetonitrile (A) and 0.1% formic acid aqueous solution (B) with following gradient elution at a flow rate of 0.40 ml/min: 0–10 min, 20–35% A; 10–20 min, 35% A; 20–25 min, 35–65% A; 25–30 min, 65% A; 30–35 min, 65–20% A; and 35–45 min, 20% A. The DAD spectral data was collected from 190 to 400 nm. The injection volume of all the tested samples was 10 μl. Mass data were acquired in negative mode under the following conditions, ion spray voltage −4,500 V, ion source temperature 450°C, curtain gas 10 psi, nebulizer gas 60 psi and auxiliary gas 60 psi.

[6] = system: human liver microsomes (HLMs); details: for Vmax of metabolite formation from GAA: HLMs 0.25 mg protein/ml, GAA 1–50 μM, 30 min
Procedure: The formation kinetics of the two main reduction metabolites M2 (GAC2) and M4 (7β,15-dihydroxy-3,11,23-trioxo-lanost-26-oic acid) were determined. The incubations were performed in a medium (100 μl) containing 0.25 mg protein /ml RLMs or HLMs, different concentrations of GAA (1–50 μM), 3.3 mM of MgCl2, 3.0 mM of NADPH and 100 mM of sodium phosphate buffer (pH 7.4). After 10 min of preincubation, GAA at each concentration was incubated with RLMs and HLMs for 5 and 30 min, respectively. The reactions were terminated by adding with 100 μl of ice-cold acetonitrile containing 2 μM GLA used as internal standard (IS). After centrifugation, metabolites in the mixture were analyzed by UFLC-MS/MS detection as described below. The metabolite formation rates vs. GAA concentrations were plotted to obtain the Michaelis-Menten constant (Km) and maximum velocity (Vmax) values of the metabolic reactions. Each of the incubations was performed in triplicate.
The kinetic parameters of GAA metabolism by RLMs or HLMs were calculated by fitting the data to the hyperbolic Michaelis-Menten model: V=Vmax×[S]/Km+[S]
Where Vmax is the maximal velocity of formation, S is the concentration of substrate, Km is the substrate concentration of half maximal velocity, and the intrinsic clearance (CLint) is calculated as Vmax/Km.

[7] = system: rat liver microsomes (RLMs); experiment: Formation kinetics of the metabolites M2 and M4 in RLMs; assay type: in vitro ADME
Procedure: Each of the incubations was performed in triplicate.

[8] = system: rat liver microsomes (RLMs)
Procedure: as §2, §3

[9] = system: human liver microsomes (HLMs)
Procedure: as §2, §3

SMILES: CC(=O)N1CCN(c2ccc(OCC3COC(Cn4ccnc4)(c4ccc(Cl)cc4Cl)O3)cc2)CC1 (stereo not shown) [Ketoconazole, ketoconazole]
inhibition at 10 μM (CYP3A [1]): 19.9%
inhibition at 10 μM (CYP3A [2]; formation of metabolite M2, HLMs 0.25 mg/ml, read-out: inhibition of the formation of M2 in HLMs): 56%
inhibition at 10 μM (CYP3A [2]; formation of metabolite M4, HLMs 0.25 mg/ml, read-out: inhibition of the formation of M4 in HLMs): 38.2%

SMILES: C[C@H](CC(=O)C[C@@H](C)[C@H]1C[C@H](O)[C@@]2(C)C3=C(C(=O)C[C@]12C)[C@@]1(C)CCC(=O)C(C)(C)[C@@H]1C[C@@H]3O)C(=O)O [Metabolite M0, Ganoderic acid A]
tumor metastasis to the liver (EL4 syngeneic mice; EL4 syngeneic mice): decrease tumor metastasis to the liver
survival of EL4 syngeneic mice (EL4 syngeneic mice): significantly prolong the survival
Detected resource 4, RLMs [3]: +
chemosensitivity of HepG2 cells to Cisplatin (HepG2 cells): enhance chemosensitivity
Detected resource 5, HLMs [4]: +
Detected resource 1, rat bile [5]: +
Detected resource 2, rat plasma [5]: +
Detected resource 3, rat urine [5]: +

SMILES: C[C@H](CC(=O)C[C@@H](C)[C@H]1C[C@H](O)[C@@]2(C)C3=C(C(=O)C[C@]12C)[C@@]1(C)CC[C@H](O)C(C)(C)[C@@H]1C[C@@H]3O)C(=O)O [Metabolite M2, Ganoderic acid C2]
Vmax of metabolite formation from GAA [6]: 30.18 pmol/min/mg
Clint of metabolite formation from GAA (Vmax/Km) ([6]; human, pH 7.4): 0.33 µL/min/mg
Km of M2 higher than that of M4 ([6]; in HLMs, ratio M2 vs M4): 15 fold
Km by HLMs higher than by RLMs ([6]; ratio HLMs vs RLMs): approximately 3 fold
Vmax of metabolite formation from GAA ([7]; RLMs 0.25 mg protein/ml, GAA 1–50 μM, 5 min): 185.81 pmol/min/mg
CLint by RLMs higher than by HLMs ([7]; ratio RLMs vs HLMs): 20 fold
Vmax by RLMs higher than by HLMs ([7]; ratio RLMs vs HLMs): 6 fold
relative abundance of metabolite in RLMs incubations [8]: most abundant
metabolite detected in HLMs incubations [9]: detected
relative abundance of metabolite in HLMs incubations [9]: abundant

SMILES: CC(CC(=O)CC(C)C1CC(O)C2(C)C3C(O)CC4C(C)(C)C(=O)CCC4(C)C3C(=O)CC12C)C(=O)O (stereo not drawn) [Metabolite M4, 7β,15-dihydroxy-3,11,23-trioxo-lanost-26-oic acid]
Vmax of metabolite formation from GAA [6]: 29.70 pmol/min/mg
CLint of M4 formation higher than that of M2 ([6]; human, pH 7.4): 15 fold
Clint of metabolite formation from GAA (Vmax/Km) ([6]; human, pH 7.4): 4.85 µL/min/mg
metabolite found in RLMs incubations [8]: undetected
metabolite detected in HLMs incubations [9]: detected
relative abundance of metabolite in HLMs incubations [9]: abundant

SMILES: CC(CC(=O)C[C@@H](C)[C@H]1C[C@H](O)[C@@]2(C)C3=C(C(=O)C[C@]12C)[C@@]1(C)CCC(=O)C(C)(C)[C@@H]1CC3=O)C(=O)O (stereo partly shown) [Metabolite M7, Ganoderic acid J]
Detected resource 1, rat bile [5]: +
Detected resource 2, rat plasma [5]: +
Detected resource 3, rat urine [5]: +

SMILES: CC(CC(=O)CC(C)C1CC(O)C2(C)C3=C(C(=O)C(O)C12C)C1(C)CCC(=O)C(C)(C)C1CC3O)C(=O)O (stereo not shown) [Metabolite M9, 12-hydroxy ganoderic acid A]
metabolite found in RLMs incubations [8]: found
metabolite detected in HLMs incubations [9]: detected

SMILES: CC(CC(=O)CC(C)(O)C1CC(O)C2(C)C3=C(C(=O)CC12C)C1(C)CCC(=O)C(C)(C)C1CC3O)C(=O)O (stereo not shown) [Metabolite M11, 20-hydroxy ganoderic acid A]
metabolite found in RLMs incubations [8]: found
metabolite detected in HLMs incubations [9]: detected

SMILES: CC(CC(=O)CC(C)C1CC(O)C2(C)C3=C(C(=O)CC12C)C1(C)CCC(O)C(C)(CO)C1CC3O)C(=O)O (stereo not drawn) [Metabolite M13, 3,7β,15,28(29)-tetrahydroxy-11, 23-dioxo-lanost-8-en-26-oic acid]
metabolite found in RLMs incubations [8]: detected

SMILES: CC(CC(=O)CC(C)C1CC(O)C2(C)C3=C(C(=O)C(O)C12C)C1(C)CCC(O)C(C)(C)C1CC3O)C(=O)O (stereo not shown) [Metabolite M15, 12-hydroxy ganoderic acid C2]
metabolite found in RLMs incubations [8]: detected

SMILES: CC(CC(=O)C[C@@H](C)[C@H]1CC(=O)[C@@]2(C)C3=C(C(=O)C[C@]12C)[C@@]1(C)CC[C@H](O)C(C)(C)[C@@H]1C[C@@H]3O)C(=O)O (stereo partly shown) [Metabolite M18, Ganoderic acid B]
Detected resource 1, rat bile [5]: +
Detected resource 2, rat plasma [5]: +

Detected resource 4, RLMs [3]: +
metabolite found in RLMs incubations [3]: detected
Detected resource 1, rat bile [5]: +
SMILES: C[C@H](CC(=O)C[C@@H](C)[C@H]1C[C@H](O)[C@@]2(C)C3=C(C(=O)C[C@]12C)[C@@]1(C)CC[C@H](O[C@@H]2O[C@H](C(=O)O)[C@@H](O)[C@H](O)[C@H]2O)C(C)(C)[C@@H]1C[C@@H]3O)C(=O)O [Metabolite M25, Ganoderic acid C2 3-O-glucuronide]

Detected resource 1, rat bile [5]: +
SMILES: C[C@H](CC(=O)C[C@@H](C)[C@H]1C[C@H](O)[C@@]2(C)C3=C(C(=O)C[C@]12C)[C@@]1(C)CC[C@H](O)C(C)(C)[C@@H]1C[C@@H]3O[C@@H]1O[C@H](C(=O)O)[C@@H](O)[C@H](O)[C@H]1O)C(=O)O [Metabolite M26, Ganoderic acid C2 7-O-glucuronide]

Detected resource 1, rat bile [5]: +
SMILES: C[C@H](CC(=O)C[C@@H](C)[C@H]1C[C@H](O[C@@H]2O[C@H](C(=O)O)[C@@H](O)[C@H](O)[C@H]2O)[C@@]2(C)C3=C(C(=O)C[C@]12C)[C@@]1(C)CC[C@H](O)C(C)(C)[C@@H]1C[C@@H]3O)C(=O)O [Metabolite M27, Ganoderic acid C2 15-O-glucuronide]

SMILES: C[C@H](CC(=O)C[C@@H](C)[C@H]1C[C@H](O)[C@@]2(C)C3=C(C(=O)C[C@]12C)[C@@]1(C)CCC(=O)C(C)(C)[C@@H]1C[C@@H]3O[C@@H]1O[C@H](C(=O)O)[C@@H](O)[C@H](O)[C@H]1O)C(=O)O [Metabolite M28, Ganoderic acid A 7-O-glucuronide]
Detected resource 4, RLMs [3]: +
metabolite found in RLMs incubations [3]: found
Detected resource 5, HLMs [4]: +
metabolite detected in HLMs incubations ([4]; HLMs incubations): detected
Detected resource 1, rat bile [5]: +
Detected resource 2, rat plasma [5]: +
Detected resource 3, rat urine [5]: +

Detected resource 1, rat bile [5]: +
Detected resource 2, rat plasma [5]: +
Detected resource 3, rat urine [5]: +
SMILES: CC(CC(=O)C[C@@H](C)[C@H]1CC(O)[C@@]2(C)C3=C(C(O[C@@H]4O[C@H](C(=O)O)[C@@H](O)[C@H](O)[C@H]4O)C[C@]12C)[C@@]1(C)CCC(=O)C(C)(C)[C@@H]1CC3=O)C(=O)O (stereo partly shown) [Metabolite M29, 15-hydroxy-3,7,23-trioxo-lanost-8-en-26-oic acid-11-O-glucuronide]

SMILES: C[C@H](CC(=O)C[C@@H](C)[C@H]1C[C@H](O[C@@H]2O[C@H](C(=O)O)[C@@H](O)[C@H](O)[C@H]2O)[C@@]2(C)C3=C(C(=O)C[C@]12C)[C@@]1(C)CCC(=O)C(C)(C)[C@@H]1C[C@@H]3O)C(=O)O [Metabolite M30, Ganoderic acid A 15-O-glucuronide]
Detected resource 1, rat bile [5]: +
Detected resource 3, rat urine [5]: +

Detected resource 1, rat bile [5]: +
Detected resource 3, rat urine [5]: +
SMILES: CC(CC(=O)C[C@@H](C)[C@H]1CC(O[C@@H]2O[C@H](C(=O)O)[C@@H](O)[C@H](O)[C@H]2O)[C@@]2(C)C3=C(C(O)C[C@]12C)[C@@]1(C)CCC(=O)C(C)(C)[C@@H]1CC3=O)C(=O)O (stereo partly shown) [Metabolite M31, 11-hydroxy-3,7,23-trioxo-lanost-8-en-26-oic acid-15-O-glucuronide]

SMILES: CC(CC(=O)CC(C)C1CC(O)C2(C)C3=C(C(=O)CC12C)C1(C)CCC(=O)C(C)(CO)C1CC3O)C(=O)O (stereo not shown) [Metabolite M35, 28(29)-hydroxy ganoderic acid A]
metabolite detected in HLMs incubations [9]: detected
